# Measured values published in publication PMC6270194 (Molecules, 2013).
# Marks after values point to notes of the source that are not given here.
# Assays:
# HIV-1 protease = target: T1, HIV-1 protease (Human immunodeficiency virus type 1 group M subtype B, UniProt P04585); assay: HIV-1 protease inhibition assay (fluorescent substrate); assay type: biochemical; conditions: 10 μM compounds dissolved in DMSO; read-out: % Enzyme Inhibition HIV-I protease
# T1 construct: HIV-1 protease enzyme (Sigma Aldrich); purchased Sigma Aldrich
# Description: HIV-1 protease inhibition was performed by using a previously described method. HIV protease fluorescent substrate and HIV-1 protease enzyme (Sigma Aldrich) were used to determine HIV inhibition capacity of sample. Three primary controls i.e., blank, sample and positive control were used. Reaction mixture of 200 µL comprised of five enzyme units (5U) of HIV-1 protease along with 0.5 pmol of enzyme substrate. After addition of both enzymes and substrates, test compounds were added in different concentrations. Reaction mixture was incubated at 37 °C which leads to generation of fluorescence signal by cleaving Tyr-Pro peptide bond of the substrate. Finally reaction mixture was heated for 5 minutes at 90 °C to stop the reaction. The mixture was centrifuged at 12,000 rpm for 3 min. and supernatant was used to measure the fluorescence signal. The enzyme inhibition was calculated using the Equation (1).
# [1] = Oxygen radical absorbance capacity (ORAC) assay; conditions: 1 μM compounds dissolved in DMSO; Trolox equivalence; mean ± SD
# Description: ORAC assay is based on the free radical damage to a fluorescence probe measured by fluorescence intensity over the time. The fluorescein sodium salt was used as fluorescence probe and change in its intensity was estimated as the index of the degree of free radical damage. Assay was performed using method described elsewhere. Briefly, the standards and samples were prepared using 75 mM phosphate buffer (pH 7). As the peroxy radicals are generated from decomposition of 2,2'-azobis(2-amidino-propane) dihydrochloride (AAPH), the signal was quenched from fluorescein. However, in the presence of antioxidant samples the fluorescence signal can be stabilize which depends directly upon the antioxidant’s capacity to neutralize the free radical. Quadratic relation emerging from florescent area under the decaying curve was used to calculate antioxidant capacity as mmol Trolox equivalence per L.
# [2] = Ferric reducing ability of plasma (FRAP) assay; conditions: 10 μM compounds dissolved in DMSO; Trolox equivalence; mean ± SD
# From the text: The FRAP assay uses antioxidants in a redox-linked colorimetric assay to reduce ferric tripyridyl triazine to ferrous form at low pH [20].
# FRAP assay is based on ferric to ferrous ion reduction to test the electron donating capacity of antioxidants. The assay was modified by using the 96-well microplate reader with an injection port system. Briefly, the FRAP working reagent was made using acetate buffer, 2,4,6-Tris (2-pyridyl)-s-triazine solution and ferric chloride in the ratio 10:1:1. […] After 6 min reaction time, absorbance was measured at 593 nm. Trolox standards at different concentrations were used to calculate the antioxidant capacity as mmol Trolox equivalence per L.
# [3] = test system: human endothelial lung cells; assay: Cytotoxicity analysis by LDH release assay; assay type: cell-based; conditions: 10 µM, 24 hours
# Description: In the current study authors conducted a toxicology study to confirm safety of compounds and their dosage for potential animal or clinical studies. The study was conducted at 10 µM concentration using human endothelial lung cells. […] Literature reports on cytotoxic behavior of potent natural antioxidants are rare. Research in the field of free radicals mainly deals with screening of novel antioxidants and their mechanism of action.
# Human lung cell line (ATCC® PCS-100-022™) was purchased from American Type Culture Collection (Cederlane, Burlington, ON, Canada). Cell lines were maintained and grown in DMEM complete growth media, supplemented with 10% fetal bovine serum (FBS), 100 units/mL penicillin and 100 µg/mL streptomycin (Cederlane) at 37 °C, in a humidified 5% CO2 incubator. Cell growth medium was changed every 48 hours and when cells reached 80% confluence, they were detached from 75 cm^2 tissue culture flask using 0.25% trypsin-EDTA treatment. The detached cells were collected in sterile tube in FBS free media. Collected cells were then counted using the Millipore Scepter 2.0 handheld automated cell counter. Further assay specific analysis was performed as described in section 2.10.
# Cytotoxicity assay was performed using Promega Cytotox 96® non-radioactive colorimetric assay (Promega Corporation). The assay measures the lactate dehydrogenase (LDH) release upon cell lysis. The released LDH from cells was measured in an enzymatic assay based on conversion of tetrazolium salt to a red formazan product. Briefly, 5,000 human endothelial lung cells in 100 µL of serum-free culture medium were seeded in 96 well sterile plates. Cells were allowed to adhere to the plates for 24 h at 37 °C in a humidified, 5% CO2 incubator. After 24 h, the serum-free media was replaced by test compounds in 100 µL of serum-free culture medium. […] The test compounds at 10 µM concentration were allowed to interact with cells for 24 hours after which absorbance were recorded at 490 nm using BMG FLUOstar OPTIMA spectrophotometer (BMG Labtech, Durham, NC). […]
# [4] = DPPH· free radical scavenging assay; conditions: for IC50: DPPH· scavenging, 0.2 mM DPPH· in DMSO, absorbance 515 nm
# Description: DPPH^· assay is widely used to observe radical scavenging activity of various compounds and extracts. DPPH^· is stable N radical which is reduced to hydrazine during its reaction with hydrogen donors.
# Initially, 0.2 mM DPPH^· solution was prepared using DMSO as the solvent. […] During reduction of DPPH^· solution by antiradical compound, absorption of DPPH^· was measured at 515 nm. The spectrophotometric data was acquired using BMG FLUOstar OPTIMA spectrophotometer (BMG Labtech, Durham, NC, USA) and the IC50 values were calculated.
# [5] = test system: angiotensin converting enzyme (ACE); assay: Angiotensin converting enzyme (ACE) inhibition assay; assay type: biochemical; conditions: 10 μM compounds dissolved in DMSO
# Description: ACE assay is based on ACE inhibitory activity of test samples. The enzyme activity was measured by production of hippuric acid from the substrate hippuryl-L-histidyl-L-leucine (HHL). ACE cleaves the substrate to expose a free N-terminus, which was fluorogenically labeled with o-phthaldialdehyde (OPA). The florescence signal was measured by using excitation of 350 nm and emission of 500 nm. ACE inhibition activity of samples was measured using the following equation: % inhibition = 100 − (Acontrol − Asample)/Acontrol × 100 (1) where A is the absorbance Equation (1).
# Tyrosinase = Tyrosinase inhibition assay (L-DOPA substrate); assay type: biochemical; conditions: 10 μM compounds dissolved in DMSO
# Description: Tyrosinase inhibition was calculated based on previously described methods using L-DOPA as the substrate. Tyrosinase inhibition depended upon the amount of dopachrome produced in the reaction mixture. Absorption was measured at 490 nm to calculate the amount of dopachrome produced. The assay was performed in 96-well clear polystyrene plates using FLUOstar OPTIMA plate reader. The tyrosinase inhibitory effect of sample was measured using the following the Equation (1).
Compound,inhibition at 10 µM (HIV-1 protease) [%],ORAC antioxidant capacity [1],FRAP antioxidant capacity [2],"cytotoxicity ranking (LDH release), in words [3]","antiradical capacity lower than other series 3 analogues (fold) ([4]; DPPH assay, relative to other curcumin analogues in series 3)",IC50 [4] [µM],% Enzyme Inhibition ACE [5],% Enzyme Inhibition Tyrosinase (Tyrosinase),"radical scavenging capacity higher than curcumin (fold) ([4]; DPPH assay, relative to curcumin)"
COc1ccc(/C=C/C(O)=C2\CC/C(=C\c3ccc(OC)cc3)C2=O)cc1 [Compound 3c],35.9,1.17 ± 0.1 ^b mmole TE/L,1.09 ± 0.1 ^gh mmole TE/L,highest cytotoxic behavior,approximately 10 fold,340,67.42 ^cd %,58.54 ^g %,
O=C1/C(=C(O)/C=C/c2ccc(Cl)cc2)CC/C1=C\c1ccc(Cl)cc1 [Compound 3f],23.3,1.30 ± 0.02 ^b mmole TE/L,1.09 ± 0.1 ^gh mmole TE/L,lowest cytotoxicity effects,,90,75.12 ^bc %,61.31 ^e %,over 10 fold
